As usually defined, the IC50 is the concentration needed to halve the response being measured.

The values below come from US20170081331A1, “Pyrazolopyrazines and their use in the treatment, amelioration or prevention of a viral disease” (F. Hoffmann-La Roche AG, priority 2015, published 2017).

The structures appear in SMILES notation. Read-outs that look alike come from different tables or passages of the source.

In experiment [1] the target is whole RNP complex of IAV strain A/PR/8/34 (Influenza A virus, UniProt P03433). In words: Transcription assay (TA assay), Quantigene detection of de novo viral mRNA. The class given is biochemical, influenza A virus A/PR/8/34. The settings on record: 80 pM RNPs, 2 nM capped RNA substrate, cell-free.
Experiment [2] addresses T1, influenza A virus (IAV) PA-Nter fragment (amino acids 1-209) (Influenza A virus, UniProt P31343).
T1 construct: PA-Nter fragment (amino acids 1-209); made in house
The experiment is described as follows: FRET endonuclease activity assay. The settings on record: PA-Nter 0.5 μM, 1.6 μM RNA substrate; from initial reaction velocities (v0). It counts as biochemical.

With `O=C(O)c1nn2c(c1OCc1ccccc1)C(=O)NCC2`, the IC50 in experiment [1] (read-out: TA assay IC50) was 0.532 µM.
Regarding `CC(C)N1CC(c2ccccc2)n2c(c(O)c(=O)n2Cc2ccccc2)C1=O` (stereo not shown), in experiment [1] (read-out: TA assay IC50), the IC50 stood at 5.85 µM.
On to `CC(C)N1CC(Cc2ccccc2)n2nc(C(=O)O)c(O)c2C1=O` (stereo not shown), for which the IC50 in experiment [1] (read-out: TA assay IC50) turned out to be 13.2 µM.
`CC(C)N1CCn2c(c(O)c(=O)n2CCc2ccccc2)C1=O` showed a 50% inhibitory concentration (IC50) in experiment [2] of 7.54 µM.
Still for that read-out and setting: the value for `CC(C)N1CCn2c(c(O)c(=O)n2Cc2ccccc2)C1=O` was 12.4 µM.
Take `CC(C)N1CCn2[nH]c(=O)c(O)c2C1=O`: the IC50 in experiment [2] was 1.31 µM.
`CC(C)N1CC(C)n2c(c(O)c(=O)n2Cc2ccccc2)C1=O` (stereo not shown) came in with an IC50 in experiment [2] of 2.63 µM.
For `O=C(O)c1nn2c(c1O)C(=O)NCC2Cc1ccccc1` (stereo not shown), the IC50 in experiment [1] (read-out: TA assay IC50) turned out to be 35.1 µM.
Take `COC(=O)c1nn2c(c1O)C(=O)N(C(C)C)CC2`: in experiment [1] (read-out: TA IC50 (unit inferred)), the IC50 amounted to 79.6 µM.
Turning to `CN1CC(Cc2ccccc2)n2nc(C(=O)O)c(O)c2C1=O` (stereo not shown), in experiment [1] (read-out: TA assay IC50), the IC50 was 25.5 µM.
